Measurements reported in ChEMBL document CHEMBL1148945, “Isolation of cytochrome P450 inhibitors from strawberry fruit, Fragaria ananassa” (J Nat Prod, 2004).

Target: Cytochrome P450 3A4 (Homo sapiens, UniProt P08684)
Experiment: Inhibition of human CYP3A4
Assay type: ADME

Cytochrome P450 3A4, sequence (P08684 whole entry): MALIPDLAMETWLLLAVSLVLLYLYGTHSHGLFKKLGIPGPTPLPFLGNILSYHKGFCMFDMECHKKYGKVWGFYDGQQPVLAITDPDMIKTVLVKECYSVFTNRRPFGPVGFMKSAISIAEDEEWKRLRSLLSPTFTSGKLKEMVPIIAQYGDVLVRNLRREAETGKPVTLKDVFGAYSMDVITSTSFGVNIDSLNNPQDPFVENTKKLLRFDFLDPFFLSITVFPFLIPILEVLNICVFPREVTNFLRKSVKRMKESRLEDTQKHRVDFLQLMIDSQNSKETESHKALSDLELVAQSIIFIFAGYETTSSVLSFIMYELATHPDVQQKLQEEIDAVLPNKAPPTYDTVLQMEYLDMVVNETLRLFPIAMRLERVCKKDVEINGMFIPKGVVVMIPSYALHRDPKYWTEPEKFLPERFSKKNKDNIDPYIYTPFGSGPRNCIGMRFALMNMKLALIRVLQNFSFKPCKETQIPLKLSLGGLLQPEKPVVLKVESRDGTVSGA

SMILES	IC50
CC(C)CC(=O)c1c(O)cc(O)cc1O[C@@H]1O[C@H](CO)[C@@H](O)[C@H](O)[C@H]1O	120000 nM
O=C(/C=C\c1ccc(O)cc1)OC[C@H]1O[C@@H](Oc2c(-c3ccc(O)cc3)oc3cc(O)cc(O)c3c2=O)[C@H](O)[C@@H](O)[C@@H]1O	700 nM
O=C(/C=C/c1ccc(O)cc1)OC[C@H]1O[C@@H](Oc2c(-c3ccc(O)cc3)oc3cc(O)cc(O)c3c2=O)[C@H](O)[C@@H](O)[C@@H]1O [TILIROSIDE]	700 nM
